# Assay results reported in patent publication US12589099B2 (priority 2021, dated 2026).
# Tested on: NeuN and BrdU double positive granule neurons in the dentate gyrus
# Test: NeuN/BrdU double label, newborn neurons in the dentate gyrus 35 days post-TBI
# Format: in vivo, male Wistar rats
# Conditions: 4.5 mg/kg IN twice daily, 35 days following TBI
# Excerpt: Young adult (2-3 months) male Wistar rats were subjected to a moderate traumatic brain injury (TBI) induced by controlled cortical impact (CCI). Animal models of TBI including the CCI model and functional tests have been described in detail in peer reviewed publications (Xiong et al., 2013, Nat Rev Neurosci.; Zhang et al., 2016, J Neurosurg.; Zhang et al., 2016, Neurochem Int.; Zhang et al., 2021, J Neurotrauma). Injury consisted of a single impact at 4.0 m/sec, 2.5 mm deformation to the left parietal cortex. In addition, a group of animals was left healthy/not injured to serve as a healthy control.
# The substance used in this study was ALPHA-1062 at 4.5 mg/kg. As control treatment (vehicle) purified water was administered intranasally (IN). The ALPHA-1062 and the control treatment were initiated 2 hours after injury and continued twice daily (with a 6-hour interval) for 35 consecutive days. […]
# Histological assessment was performed including quantitative image analysis protocols; followed by statistical analysis of the data. […]
# For cell counting and quantitation NeuN+ cells were examined in the ipsilateral cortex, DG, CA1, and CA3 regions of the ipsilateral hippocampus. […] The number of BrdU+ cells (red-fluorophore) and NeuN (green-fluorophore)/BrdU-colabeled cells (yellow after merge) were counted. […]
smiles,measurement,value
"COc1ccc2c3c1O[C@H]1C[C@@H](OC(=O)c4ccccc4)C=C[C@@]31CCN(C)C2 [ALPHA-1062, (4aS,6R,8aS)-5,6,9,10,11,12-hexahydro-3-methoxy-11-methyl-4aH-[1]benzofuro[3a,3,2-ef][2]benzazepin-6-ol benzoate]",NeuN and BrdU double positive granule neurons compared to both vehicle-treated and sham surgery animals,significantly higher (p<0.05) numbers
